Test results as given in publication PMC7358525, “Characterization of PF-6142, a Novel, Non-Catecholamine Dopamine Receptor D1 Agonist, in Murine and Nonhuman Primate Models of Dopaminergic Activation” (Frontiers in Pharmacology, 2020).

Assays:
[1] = system: EEG oscillation power; assay: Rat quantitative electroencephalography, freely moving; type: in vivo; conditions: first 4 h
Description: Model 4ET telemetry device components (Data Sciences International, St Paul, MN, USA) were bilaterally placed in subcutaneous pockets on the dorsal flank of adult male Sprague-Dawley rats (200–400 grams). Two pairs of leads were implanted superficially to burr holes drilled over the frontal cortex (stainless steel screws, Plastics One, Roanoke, VA at coordinates: A-P = +1.5 mm, M-L = 1.5 mm) and parietal cortex (coordinates: A-P = −3.7 mm, M-L = −2.2 mm), and the cerebellum bilaterally to be used as ground and reference for electroencephalographic (EEG) recordings. A stainless-steel wire (Plastics One, Roanoke, VA) was implanted into the neck muscle to monitor electromyogram (EMG). All recordings were performed inside the home cages of animals using RPC-2 telemetry receivers (Data Sciences International, St. Paul, MN) at a sampling rate of 500 Hz for data acquisition. Baseline data, while on vehicle, were obtained for 24 h prior to compound administration. PF-6142 (1.0 or 5.6 mg/kg, s.c.) was administered acutely following the baseline day.
Raw EEG traces were analyzed using custom scripts in MATLAB (The Mathworks, Natick, MA, version 7.8 (R2009a)) to evaluate spectral changes between treatment groups. Raw EEG data were read into the MATLAB software, segmented to match that of the polysomnography (PSG) data (see below) and fast Fourier transforms (FFTs) were performed. Only data collected on the parietal lead were the subject of statistical analyses. PSG analysis was applied to all EEG/EMG data and utilized an in-house algorithm developed in LabView (National Instruments, Austin TX) as previously described ([Harvey et al., 2013]).
Relative power data in each band aggregated over 2 h-long time bins, while on drug, were normalized to baseline levels in corresponding time bins relative to dosing. For statistical analysis the R software was used. The effects of two within factors, dose and time, on cumulative time spent in three stages, awake, REM, and NREM sleep were assessed using generalized linear mixed model. The model specification explicitly accounted for a crossover design with repeated measures by introducing auxiliary factors, day, treatment sequence, and day by time product. To account for correlations within subjects, we employed a first order autoregressive scheme, which assumes that correlations decay exponentially with the lag between the measurements. The model was fitted using the method of restricted maximum likelihood. Significant findings were followed by least significant difference tests for pairwise differences across doses and across doses at fixed times for treatment and treatment by time factors, respectively. Tukey-Kramer procedure was used to adjust for multiple hypothesis testing. For all statistical tests, p < 0.05 was considered significant. The same fixed factors and type of statistical model were used to explain cumulative power within EEG power bands; the power was log transformed before the analysis.

[2] = system: ketamine-induced working memory deficits; assay: Ketamine-disrupted radial arm maze (RAM); type: in vivo, rat; conditions: 0.01, 0.056, 0.178, 0.56 mg/kg s.c., 90 min before ketamine 10 mg/kg
Description: Two cohorts of adult male Long-Evans rats (N=30 each) were trained in a spatial working memory task on an eight-arm RAM, (Pathfinder Maze System, Lafayette Instrument Co., Lafayette, IN), using a procedure adapted from [Ward et al. (1990)] and described in detail in [Strick et al. (2011)]. Briefly, rats were food-restricted to provide motivation to perform the RAM task. The task requires that the animals enter each arm to retrieve a reinforcement food pellets, using spatial cues in the room to remember which arms of the maze they have previously entered. Rats were individually placed on the maze and allowed to navigate until all eight arms were entered and the pellets were consumed or until 30 choices were made, or until 5 min had elapsed. Entry into an arm previously entered was counted as an error. […] Training continued until all animals had reached the training criterion, defined as two or fewer errors on two consecutive days. […] Performance on the maze was evaluated 30 min later by an observer that was blinded to treatments.
The R 3.0.1 statistical software was used to compare the error rate data. The effects of treatment and the interaction on the error rate were assessed using a one-way mixed model ANOVA using generalized least squares method from lme4 library. […]

[3] = system: MK-801-disrupted paired-pulse facilitation; assay: Paired-pulse facilitation (PPF), CA1/subiculum to mPFC, urethane-anesthetized rat; type: in vivo
Description: Experiments were performed on n=10 adult male Sprague-Dawley rats (275–305 g) under urethane anesthesia (1.5 g/kg, i.p.). The femoral vein was cannulated for i.v. administration of drugs. A stimulation electrode was placed in the CA1/subiculum region (coordinates: A-P = +6.3 mm, M–L = +5.2 mm, D-V = +8.0 mm) using stereotactic methods and unilateral local field potential (LFP) was recorded by a metal monopolar macroelectrode placed into the medial PFC (mPFC; coordinates: A-P = +3.0 mm, M-L = +0.6 mm, D-V = +5.0 mm). […] Evoked responses to the first and the second stimuli were identified (P1 and P2, respectively) and the amount of PPF determined by the formula: (P2 amplitude/P1 amplitude). Waveform averages used to calculate PPF consisted of 60 consecutive stimuli. Five minutes were allowed between administration of each drug dose and the starting of the subsequent average of each 10-min period after each cumulative dose (0.1–1 mg/kg, IV). Disruption in power of LFP delta activity was measured as the percentage of power in low frequency (0–1.8 Hz) irregular activity in the total (0–4 Hz) delta power range. LFP power spectra were determined during periods concurrent with waveform averages and PPF calculation. Statistical significance was determined by means of two-tailed paired Student’s t-test.

[4] = Plasma exposure (PK), rat; type: in vivo; conditions: 10 mg/kg SC, 1.5 h
Description: (§1) Across the set of experiments, PK was either collected from satellite animals or in separate, dedicated studies. In addition to plasma PK, exposures were obtained in brain tissue for rat and mouse, and plasma protein binding and brain tissue binding were measured. Using the measured exposures, partitioning, and binding parameters, and the […]

[5] = Plasma exposure (PK), NHP; type: in vivo; conditions: 0.1 mg/kg SC, 0.5 h
Description: as §1

[6] = significant only at 5.6 mg/kg s.c.

In the case of `Cc1cc(Oc2nccc3occc23)ccc1-c1c(C)ncc2nccn12` [PF-6142], the “delta oscillation power vs vehicle” value ([1]; 5.6 mg/kg s.c.) is reported as “significant delta power decrease”, the “power in other studied frequency bands (theta, alpha)” value ([1]; 1.0 and 5.6 mg/kg s.c.) is reported as “not found to change significantly” and the beta oscillation power [1, 6] is reported as “significant increase”. For the same compound, the gamma oscillation power [1, 6] was “significant increase”, the “total power in the EEG signal” value [1, 6] was “decreased significantly” and the “ketamine-induced error rate in RAM” value [2] was “decreased the ketamine-induced error rate at all, except for the lowest dose administered”. The “PPF values vs MK-801 challenge” value ([3]; PF-6142 1.0 mg/kg IV cumulative (p=0.006)) was “significantly higher PPF values”, the “effect on MK-801-induced changes in PPF after SCH-23390 pretreatment” value ([3]; PF-6142 1.0-3.0 mg/kg IV cumulative (3 mg/kg: p=0.89)) was “no significant effect” and the “ED50 for reversal of MK-801-induced effects on PPF” value ([3]; cumulative IV, Spearman-Karber, 95% confidence levels 0.21-0.57 mg/kg, n=5) was 0.35 mg/kg. For the same compound, the PF-6142 plasma concentration [4] was 1260 ng/mL and the PF-6142 plasma concentration [5] was 31 ng/mL.
